Numbered stars: 1 amine (or outer) side, 2 acyl side, 3 side chain; on linkers, the order of the positions; unused ones are H or OH. Bridge positions count the residues as written; N and C are the ends. Side chains are listed from the residue outwards. Peptide text beside a SMILES is read from it. * marks the point of attachment. C20 diacid = O=C(O)CCCCCCCCCCCCCCCCCCC(=O)*; γGlu = O=C(O)[C@H](CCC(=O)[*:2])N[*:1]; AEEA = NCCOCCOCC(=O)O
Key:
[1] = molecular target: T1, human calcitonin receptor (Homo sapiens, UniProt P30988); test: ASSAY (VII) binding to the human calcitonin receptor (SPA, 125I-Calcitonin); details: read-out: hCTR bind IC50;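 further: cell membranes (35 ng/µL) combined with SPA beads in 40 µL of pH 7.4 Hepes buffer, 384-well format, signal counted on a TopCounter instrument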
T1 construct: expressed in transfected cells
T1 sequence (P30988 25-474): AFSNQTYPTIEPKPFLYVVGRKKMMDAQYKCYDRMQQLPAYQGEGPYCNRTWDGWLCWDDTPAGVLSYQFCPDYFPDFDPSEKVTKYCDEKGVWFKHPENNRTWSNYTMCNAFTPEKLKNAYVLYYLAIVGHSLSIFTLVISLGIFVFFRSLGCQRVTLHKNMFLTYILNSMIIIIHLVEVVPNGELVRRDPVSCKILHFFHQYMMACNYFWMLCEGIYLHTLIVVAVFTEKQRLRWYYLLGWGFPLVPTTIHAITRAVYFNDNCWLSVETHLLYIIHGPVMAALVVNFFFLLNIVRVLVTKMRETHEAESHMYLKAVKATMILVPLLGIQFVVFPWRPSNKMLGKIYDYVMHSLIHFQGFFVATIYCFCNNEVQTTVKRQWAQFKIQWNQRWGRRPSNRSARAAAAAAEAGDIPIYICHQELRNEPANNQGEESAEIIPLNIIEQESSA

[2] = molecular target: T2, human amylin 3(a) receptor (human calcitonin receptor + RAMP-3) in BHK570 cells (Homo sapiens, UniProt O60896+P30988); test: ASSAY (II)a functional assay, human amylin receptor (CRE luciferase); assay type: cell-based; details: for EC50: human amylin receptor functional potency, assay (II), read-out: hAmylin-R funct. EC50
T2 construct: expressed in transfected cells
Procedure, shortened: (§1)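 Readout is luminescence from a cAMP-responsive CRE-luc reporter, developed with LucLite for 30 min at room temperature. Cells were treated for 3 h at 37 °C in 10% FBS/DMEM buffered with 10 mM Hepes (pH 7.4).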

[3] = molecular target: T3, human amylin receptor (membranes from Amylin 3(a)/CRE-luc cells) (Homo sapiens, UniProt O60896+P30988); test: ASSAY (V) binding to the human amylin receptor (SPA, 125I-rat amylin); details: for IC50: Table 4, read-out: hAmylin-R bind IC50;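 on all read-outs here: competition binding of cell membranes (35 ng/µL) mixed with SPA beads in 384-well plates at 40 µL total volume, read by scintillation counting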
T3 construct: expressed in transfected cells
T3 sequence (P30988 25-474): T1 sequence (P30988 25-474)
T3 sequence (O60896 24-148 partner): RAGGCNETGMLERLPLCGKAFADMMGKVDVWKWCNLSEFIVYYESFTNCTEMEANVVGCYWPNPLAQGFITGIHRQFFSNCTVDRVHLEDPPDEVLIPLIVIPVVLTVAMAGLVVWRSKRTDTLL

[4] = molecular target: T4, human calcitonin (a) receptor in BHK570 cells (Homo sapiens, UniProt P30988); test: ASSAY (II)a functional assay, human calcitonin receptor (CRE luciferase); assay type: cell-based; details: read-out: hCTR funct. EC50
T4 construct: expressed in transfected cells
T4 sequence (P30988 25-474): T1 sequence (P30988 25-474)
Procedure, shortened: as §1

[5] = hCTR funct. EC50 divided by hAmylin-R funct. EC50
[6] = hCTR funct. EC50 over hAmylin-R funct. EC50
[7] = human functional selectivity: hCTR funct. EC50 / hAmylin-R funct. EC50
[8] = Table 5, selectivity, hCTR bind IC50 / hAmylin-R bind IC50
[9] = Table 5a, selectivity, hCTR bind IC50 / hAmylin-R bind IC50
[10] = Table 5b, selectivity, hCTR bind IC50 / hAmylin-R bind IC50
[11] = Table 5c, selectivity, hCTR bind IC50 / hAmylin-R bind IC50
[12] = Table 7, human binding selectivity, included for comparison
[13] = Table 7a (preferred compounds), human binding selectivity, included for comparison
[14] = ratio of human calcitonin receptor binding IC50 to human amylin receptor binding IC50

Row | SMILES | IC50 [1] | Ratio hCT/hAmylin funct. [2, 5] | Ratio hCT/hAmylin funct. [2, 6] | EC50 [2] | Ratio hCT/hAmylin funct. [2, 7] | IC50 [3] | Ratio hCT/hAmylin binding [3, 8] | Ratio hCT/hAmylin binding [3, 9] | Ratio hCT/hAmylin binding [3, 10] | Ratio hCT/hAmylin binding [3, 11] | Ratio hCT/hAmylin binding [3, 12] | Ratio hCT/hAmylin binding [3, 13] | Ratio hCT/hAmylin binding [3, 14] | EC50 [4] | Ratio hCT/hAmylin funct. ([2]; hCTR funct. EC50 / hAmylin-R funct. EC50)
1 | CC[C@H](C)[C@H](NC(=O)[C@H](C)NC(=O)CNC(=O)[C@H](Cc1ccccc1)NC(=O)[C@H](CC(N)=O)NC(=O)[C@@H]1CCCN1C(=O)[C@H](CO)NC(=O)[C@H](CO)NC(=O)[C@H](Cc1c[nH]cn1)NC(=O)[C@H](CCCNC(=N)N)NC(=O)[C@H](CC(C)C)NC(=O)[C@H](Cc1ccccc1)NC(=O)[C@H](CC(N)=O)NC(=O)[C@H](C)NC(=O)[C@H](CC(C)C)NC(=O)[C@H](CCCNC(=N)N)NC(=O)[C@H](CCC(N)=O)NC(=O)[C@@H](NC(=O)[C@H](C)NC(=O)[C@@H]1CSSC[C@H](NC(=O)[C@@H](N)CCCCNC(=O)COCCOCCNC(=O)CC[C@H](NC(=O)CCCCCCCCCCCCCCCCCCC(=O)O)C(=O)O)C(=O)N[C@@H](CC(N)=O)C(=O)N[C@@H]([C@@H](C)O)C(=O)N[C@@H](C)C(=O)N[C@@H]([C@@H](C)O)C(=O)N1)[C@@H](C)O)C(=O)N1CCC[C@H]1C(=O)N[C@@H](CO)C(=O)N[C@@H](CO)C(=O)N[C@H](C(=O)N[C@@H](CC(N)=O)C(=O)N[C@H](C(=O)NCC(=O)N[C@@H](CO)C(=O)N[C@@H](CCC(=O)O)C(=O)N[C@H](C(=O)N[C@@H](Cc1ccc(O)cc1)C(N)=O)[C@@H](C)O)C(C)C)[C@@H](C)O [Example 26] (H-K([AEEA-γGlu-C20 diacid])CNTATCATQRLANFLRHSSPNFGAIPSSTNVGSETY-NH2; disulfide 2-7; N-terminus assumed) | 25.3 nM | 29.9 | 29.9 | 0.212 nM | 29.9 | 0.532 nM | 47.5 | 47.5 | 47.5 | 47.5 | 47.5 | 47.5 | 47.5 | 6.34 nM | 
2 | CC[C@H](C)[C@H](NC(=O)[C@H](C)NC(=O)CNC(=O)[C@H](Cc1ccccc1)NC(=O)[C@H](CC(N)=O)NC(=O)[C@@H]1CCCN1C(=O)[C@H](CO)NC(=O)[C@H](CO)NC(=O)[C@H](Cc1c[nH]cn1)NC(=O)[C@H](CCCNC(=N)N)NC(=O)[C@H](CC(C)C)NC(=O)[C@H](Cc1ccccc1)NC(=O)[C@H](CC(N)=O)NC(=O)[C@H](C)NC(=O)[C@H](CC(C)C)NC(=O)[C@H](CCCNC(=N)N)NC(=O)[C@H](CCC(N)=O)NC(=O)[C@@H](NC(=O)[C@H](C)NC(=O)[C@@H]1CSSC[C@H](NC(=O)[C@H](CCCCN)NC(=O)CC[C@H](NC(=O)CCCCCCCCCCCCCCCCCCC(=O)O)C(=O)O)C(=O)N[C@@H](CC(N)=O)C(=O)N[C@@H]([C@@H](C)O)C(=O)N[C@@H](C)C(=O)N[C@@H]([C@@H](C)O)C(=O)N1)[C@@H](C)O)C(=O)N1CCC[C@H]1C(=O)N[C@@H](CO)C(=O)N[C@@H](CO)C(=O)N[C@H](C(=O)N1CCC[C@H]1C(=O)N[C@H](C(=O)NCC(=O)N[C@@H](CO)C(=O)N[C@@H](CCC(=O)O)C(=O)N[C@H](C(=O)N[C@@H](Cc1ccc(O)cc1)C(N)=O)[C@@H](C)O)C(C)C)[C@@H](C)O [Example 28] ({C20 diacid-γGlu}-KCNTATCATQRLANFLRHSSPNFGAIPSSTPVGSETY-NH2; disulfide 2-7 (inferred)) | 12.5 nM | 9.2 | 9.2 | 0.22 nM | 9.2 | 0.61 nM | 20.5 | 20.5 | 20.5 | 20.5 | 20.5 | 20.5 | 20.5 | 2.03 nM | 
3 | CC[C@H](C)[C@H](NC(=O)[C@H](C)NC(=O)CNC(=O)[C@H](Cc1ccccc1)NC(=O)[C@H](CC(N)=O)NC(=O)[C@@H]1CCCN1C(=O)[C@H](CO)NC(=O)[C@H](CO)NC(=O)[C@H](Cc1c[nH]cn1)NC(=O)[C@H](CCCNC(=N)N)NC(=O)[C@H](CC(C)C)NC(=O)[C@H](Cc1ccccc1)NC(=O)[C@H](CCC(=O)O)NC(=O)[C@H](C)NC(=O)[C@H](CC(C)C)NC(=O)[C@H](CCCNC(=N)N)NC(=O)[C@H](CCC(N)=O)NC(=O)[C@@H](NC(=O)[C@H](C)NC(=O)[C@@H]1CSSC[C@H](NC(=O)[C@H](CCCCN)NC(=O)CC[C@H](NC(=O)CCCCCCCCCCCCCCCCCCC(=O)O)C(=O)O)C(=O)N[C@@H](CC(N)=O)C(=O)N[C@@H]([C@@H](C)O)C(=O)N[C@@H](C)C(=O)N[C@@H]([C@@H](C)O)C(=O)N1)[C@@H](C)O)C(=O)N[C@@H](CC(C)C)C(=O)N1CCC[C@H]1C(=O)N[C@@H](CO)C(=O)N[C@H](C(=O)N[C@@H](CC(N)=O)C(=O)N[C@H](C(=O)NCC(=O)N[C@@H](CO)C(=O)N[C@@H](CCC(=O)O)C(=O)N[C@H](C(=O)N[C@@H](Cc1ccc(O)cc1)C(N)=O)[C@@H](C)O)C(C)C)[C@@H](C)O [Example 33] ({C20 diacid-γGlu}-KCNTATCATQRLAEFLRHSSPNFGAILPSTNVGSETY-NH2; disulfide 2-7) | 3.61 nM |  | 2.2 | 0.243 nM | 2.2 | 0.915 nM | 3.9 |  |  |  | 3.9 | 3.9 |  | 0.528 nM | 2.2
4 | CC[C@H](C)[C@H](NC(=O)[C@H](C)NC(=O)CNC(=O)[C@H](Cc1ccccc1)NC(=O)[C@H](CC(N)=O)NC(=O)[C@@H]1CCCN1C(=O)[C@H](CO)NC(=O)[C@H](CO)NC(=O)[C@H](Cc1c[nH]cn1)NC(=O)[C@H](CCCNC(=N)N)NC(=O)[C@H](CC(C)C)NC(=O)[C@H](Cc1ccccc1)NC(=O)[C@H](CC(N)=O)NC(=O)[C@H](C)NC(=O)[C@H](CC(C)C)NC(=O)[C@H](CCCNC(=N)N)NC(=O)[C@H](CCC(N)=O)NC(=O)[C@@H](NC(=O)[C@H](C)NC(=O)[C@@H]1CSSC[C@H](NC(=O)[C@@H](N)CCCCNC(=O)CC[C@H](NC(=O)CCCCCCCCCCCCCCCCCCC(=O)O)C(=O)O)C(=O)N[C@@H](CC(N)=O)C(=O)N[C@@H]([C@@H](C)O)C(=O)N[C@@H](C)C(=O)N[C@@H]([C@@H](C)O)C(=O)N1)[C@@H](C)O)C(=O)N1CCC[C@H]1C(=O)N[C@@H](CO)C(=O)N[C@@H](CO)C(=O)N[C@H](C(=O)N[C@@H](CC(N)=O)C(=O)N[C@H](C(=O)NCC(=O)N[C@@H](CO)C(=O)N[C@@H](CCCCN)C(=O)N[C@H](C(=O)N[C@@H](Cc1ccc(O)cc1)C(N)=O)[C@@H](C)O)C(C)C)[C@@H](C)O [Example 35] (H-K([γGlu-C20 diacid])CNTATCATQRLANFLRHSSPNFGAIPSSTNVGSKTY-NH2; disulfide 2-7; N-terminus assumed) | 48.7 nM | 15.0 | 15.0 | 0.364 nM | 15.0 | 0.97 nM | 50.3 | 50.3 | 50.3 | 50.3 | 50.3 | 50.3 | 50.3 | 5.46 nM | 

Reference: US9023789B2, “Amylin analogs and pharmaceutical compositions thereof” (Novo Nordisk A/S, priority 2012, dated 2015)
